Measurements as given in PMC4171110, “BdcA, a Protein Important for Escherichia coli Biofilm Dispersal, Is a Short-Chain Dehydrogenase/Reductase that Binds Specifically to NADPH” (PLoS ONE, 2014).
One block for each molecule: values may come before it.

How the values were obtained:
BdcA [1] = molecular target: T1, BdcA (Escherichia coli, UniProt P39333); test: isothermal titration calorimetry; type: binding
T1 construct: full-length; N-terminal Thio6-His6 tag removed with TEV protease; expressed in E. coli BL21-Gold (DE3)
T1 sequence (P39333 1-237): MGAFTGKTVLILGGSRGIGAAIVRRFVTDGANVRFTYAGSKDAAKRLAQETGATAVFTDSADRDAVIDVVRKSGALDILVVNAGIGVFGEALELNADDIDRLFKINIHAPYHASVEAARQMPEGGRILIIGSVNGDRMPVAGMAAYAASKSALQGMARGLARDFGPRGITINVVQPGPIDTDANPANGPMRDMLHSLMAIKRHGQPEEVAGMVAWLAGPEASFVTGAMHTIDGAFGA
Source text: isothermal titration calorimetry on BdcA

BdcA [2] = molecular target: T1, BdcA; test: differential scanning fluorimetry (SYPRO Orange); type: binding; conditions: 20 mM HEPES pH 7.5; 8 µM protein, 160 µM ligand
Source text: differential scanning fluorimetry (SYPRO Orange) on BdcA

[3] = molecular target: the molecule itself; test: SEC; Superdex 75 26/60, 20 mM Tris pH 7.5, 100 mM NaCl, 0.5 mM TCEP; elution volume compared with MW standards (158, 44, 17 kDa)

Kd (BdcA [1]): 25.9 ± 4.1 µM
ΔTm (°C) (BdcA [2]): 3.1 °C
Molecule: NC(=O)C1=CN([C@@H]2O[C@H](COP(=O)(O)OP(=O)(O)OC[C@H]3O[C@@H](n4cnc5c(N)ncnc54)[C@H](OP(=O)(O)O)[C@@H]3O)[C@@H](O)[C@H]2O)C=CC1 [NADPH]

ΔTm (°C) (BdcA [2]): 1.0 °C
Molecule: NC(=O)c1ccc[n+]([C@@H]2O[C@H](COP(=O)(O)OP(=O)(O)OC[C@H]3O[C@@H](n4cnc5c(N)ncnc54)[C@H](OP(=O)(O)O)[C@@H]3O)[C@@H](O)[C@H]2O)c1 [NADP]

B1: BdcA (enzyme, E. coli, UniProt P39333 1-237, looked up)
chain: T1 sequence (P39333 1-237)
notes: BdcA (YjgI), short-chain dehydrogenase/reductase of E. coli, full-length bdcA gene in the RP1B vector; monomer MW 24.9 kDa as printed; Tag removed with TEV protease; Homodimer in the crystal and in solution; also called YjgI; BcdA; source: E. coli BL21-Gold (DE3), purified (HisTrap, TEV cleavage, Ni-NTA, SEC); not shown: Thio6-His6, N-terminal, cleaved
stoichiometry N [3]: 2
